Legend:
[1] = biological target: 5-HT, receptor (Homo sapiens, UniProt P34969); conditions: cited from earlier work
[2] = system: patients with diagnoses of schizophrenia; assay: randomized, double-blind, placebo- and ziprasidone-controlled, 28-day study of iloperidone with whole genome association study; change in PANSS-T by SNP genotype; type: in vivo, human; conditions: for mean of change in PANSS-T: iloperidone group, MMRM analysis; for Odds Ratio of Improvement ≧ 20% in PANSS-T: iloperidone-treated patients, LOCF data
Procedure: The clinical trial evaluated the efficacy of iloperidone in treating patients with diagnosed schizophrenia.
Patients 18 to 65 years of age with diagnoses of schizophrenia according to the Diagnostic and Statistical Manual of Mental Disorders, 4th Edition were eligible to participate in a randomized, double-blind, placebo- and ziprasidone-controlled, 28-day study of the efficacy and safety of iloperidone. Patients were randomly assigned to iloperidone 12 mg twice a day, ziprasidone 80 mg twice a day (active control), or placebo. The primary efficacy variable was change from baseline to the last scheduled observation in Positive and Negative Syndrome Scale total score (PANSS-T) using the data from the short-term, double-blind phase. A secondary objective was to identify genetic markers predictive of response to iloperidone.
Blood samples were collected, and DNA was extracted from 432 of 457 patients who consented to the optional WGAS, including 218 patients administered iloperidone and 102 administered placebo.
To independently discover and confirm biomarkers of iloperidone efficacy, patients administered iloperidone were randomly separated and genotyped for the WGAS into two groups (Group 1 (discovery phase) and Group 2 (confirmatory phase)) of equal size. PROC SURVEYSELECT (SAS Institute, Cary, N.C.) was used to stratify the groups to have approximately equal numbers of patients of each race and each sex.
In Group 1, each SNP was tested for potential association between genotype and change in PANSS-T for patients in the low 30% and the high 30% extremes of the distribution of Day 28 last-observation-carried-forward (LOCF) data. Analysis was performed using a truncated nonparametric measure analysis of variance (ANOVA), based on the Kruskal-Wallis test, with genotypes as the grouping variables. Based on a significant omnibus test and ad hoc contrasts, the results that produced the most parsimonious genetic model (e.g., homozygous for one allele vs. all other genotypes (e.g., AA vs. AB and BB), heterozygous vs. homozygous genotypes (AB vs. AA and BB)) dictated the genetic model that was tested in the confirmatory phase. For ease of global description, given that each SNP might have a different parsimonious model, the genotypes of all SNPs associated with positive iloperidone response were referred to as genotype class C1, and the remaining genotypes for that SNP were referred to as genotype class C2. If no parsimonious genetic model was obtained for a SNP, it was not tested further. Only the subset of 100 SNPs with the lowest P values for the contrasts that defined C1 and C2 was tested in the confirmatory phase.
Two separate methods were applied. LOCF data for PANSS-T at Day 28 were used in a one-way ANOVA of each SNP, testing each genotype class against the class of the other two genotypes combined. Results from the ANOVA dictated the parsimonious genetic model to be used for additional testing. Mixed Model Repeated Measures (MMRM) analysis was subsequently conducted using the parsimonious genetic model of each SNP in the MMRM model, as used for the analysis of the clinical trial results. In the MMRM analysis, only the best genetic model of each SNP, as determined in the ANOVA LOCF data analysis, was used.
Three analyses were performed. Analysis 1 was a two-phase approach in which DNA samples were separated into two groups. The first group consisted of 50% of the samples for a discovery phase in which only the top 30% and the bottom 30% of the change in PANSS-T (LOCF data) were used, and the second was a hold-out group consisting of the other 50% for a confirmatory phase. Only the 100 SNPs with the lowest P values in the discovery phase were subsequently tested.
Analysis 2 was an ANOVA of LOCF data for all iloperidone-treated patients in a single-phase approach.
Analysis 3 was an MMRM analysis of all patients using the most parsimonious genetic model of each SNP. […]

5-HT, receptor, sequence (P34969 whole entry): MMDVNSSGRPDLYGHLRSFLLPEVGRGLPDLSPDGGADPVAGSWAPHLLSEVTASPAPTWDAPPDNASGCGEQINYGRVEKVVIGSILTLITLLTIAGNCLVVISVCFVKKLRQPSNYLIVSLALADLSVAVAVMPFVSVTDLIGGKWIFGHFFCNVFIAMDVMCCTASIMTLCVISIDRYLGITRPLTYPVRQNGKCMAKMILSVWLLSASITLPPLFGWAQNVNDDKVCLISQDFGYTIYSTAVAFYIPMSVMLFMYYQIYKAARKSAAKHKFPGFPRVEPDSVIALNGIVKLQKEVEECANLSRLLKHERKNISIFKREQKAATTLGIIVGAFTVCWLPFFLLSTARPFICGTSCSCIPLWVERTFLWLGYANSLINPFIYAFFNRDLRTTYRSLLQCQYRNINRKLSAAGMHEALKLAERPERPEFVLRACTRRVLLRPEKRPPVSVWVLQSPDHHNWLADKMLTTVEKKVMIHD

## COc1cc(C(C)=O)ccc1OCCCN1CCC(c2noc3cc(F)ccc23)CC1 [iloperidone, 1-[4-[3-[4-(6-flouro-1,2-benzisoxazol-3-yl)-1-piperidinyl]propoxy]-3-methoxyphenyl] ethanone]
[1]
  affinity for the 5-HT, receptor: high affinity
[2]; rs875326 (TNR) genotype non-AG (homozygotes, highest response class)
  mean of change in PANSS-T: −16.39 (±4.35)
[2]; rs875326 (TNR) non-AG vs AG
  Odds Ratio of Improvement ≧ 20% in PANSS-T: 3.57
[2]; rs2513265 (GRIA4) non-TT vs TT
  Odds Ratio of Improvement ≧ 20% in PANSS-T: 2.43
[2]; rs4528226 (NUDT9P1) GT vs non-GT
  Odds Ratio of Improvement ≧ 20% in PANSS-T: 3.00
[2]; rs4528226 (NUDT9P1) genotype GT (highest response class)
  mean of change in PANSS-T: −18.73 (±3.99)
[2]; rs7837682 (GRFA2) AA vs non-AA
  Odds Ratio of Improvement ≧ 20% in PANSS-T: 2.95
[2]; rs7837682 (GRFA2) genotype AA (highest response class)
  mean of change in PANSS-T: −15.95 (±4.23)
[2]; rs9643483 (XKR4) non-GG vs GG
  Odds Ratio of Improvement ≧ 20% in PANSS-T: 3.42
[2]; rs11851892 (NPAS3) non-GG vs GG
  Odds Ratio of Improvement ≧ 20% in PANSS-T: 2.74
[2]; rs11851892 non-GG genotype vs all iloperidone-treated patients
  improvement in PANSS-T greater than the mean response of all iloperidone-treated patients: 68%
